Results: patent publication US9475824B2, “Fused pyrimidines as inhibitors of p97 complex” (Cleave Biosciences, Inc., priority 2012, dated 2016)

Key:
[1] = biological target: p97 (Homo sapiens, UniProt P55072); assay: P97 ATPase biochemical assay (ADP Glo); conditions: 20 nM p97, 20 μM ATP, 37° C. 15 minutes
Protocol: The ATPase assay is performed according the following protocol: Purified enzyme (20 nM p97), substrate (20 μM ATP) and a dose titration of compounds are mixed in buffer (50 mM TRIS pH 7.5, 20 mM MgCl2, 0.02% TX-100, 1 mM DTT, 0.2% (v/v) glycerol) and incubated at 37° C. for 15 minutes. The reaction is terminated and the level of product generated is measured using the ADP Glo Assay Kit (Promega, Madison Wis.). Plotting product generated versus compound concentration and using a four-parameter fit model generates an IC50 value for each compounds.
The p97 assay is an initial screening assay used to determine inhibitory activity of the fused pyrimidine compounds of the invention against the p97 complex. As discussed above, inhibition of activity of the p97 proteosome complex can enable apoptosis and cause elimination of neoplastic cells (cancer cells). The method follows that of Christianson in Nat.
Assay Buffer is a mixture of 50 mM TRIS pH 7.5, 20 mM MgCl2, 0.02% TX-100, 1 mM DTT and 0.2% (v/v) Glycerol. […] The identification kit is an ADP glo kit (Promega): stop buffer, detection reagent.
0.5 μL compound serial diluted in DMSO (Final Conc. 10%)
2 μL ATP (Final Conc.=20 uM, diluted in assay buffer)
2.5 μL p97 (Final Conc.=20 nM, diluted in assay buffer)
Incubate at 37 degC for 15 min.
Add 5 μL of stop buffer, incubate at RT for 40 min.
Add 10 μL of detection reagent, incubate at RT for 30 min.
Read luminescence on Envision plate reader.
Plot normalized luminescence data against log-transformed concentration values and fit to a sigmoidal curve to determine IC50 values (done in Collaborative Drug Discovery software).

[2] = test system: K48-Ub, A549 cells; assay: A549 K48 cell intensity (immunofluorescence, high content imaging); assay type: cell-based; conditions: Homo sapiens, 6 hr compound incubation
Protocol: Image-analysis is used to generate quantitative data from these assays that can be fit to a four-parameter sigmoid curve to derive IC50 values. Substrates of the ubiquitin-proteasome system, such as p53, are monitored after tumor cell lines are incubated with compounds for several hours. Accumulation of these proteins indicates an inhibition of proteasome-mediated degradation. Accumulation of lysine-48 chain linkage of poly-ubiquitin is also monitored by immunofluorescence as an indicator of ubiquitin-proteasome system inhibition. Both LC3 and SQSTM1 are mediators of autophagy. The localization and amounts of these proteins are monitored by immunofluorescence and report on the activity and inhibition of autophagy in response to p97 inhibition.
Day 1, Cell Plating to Establish Colonies of Cancer Cells • Cell Plating: • Seed cells ˜16 hrs prior to compound treatment • Plate 25 μL of A549 cells in every well of 384-well plate using multidrop. • Two (2) black plates for IF at 2500 cells/well • Let plate sit at room temp for 10-15 minutes prior to putting in incubator to allow cells to stick in middle of plate. • One (1) white plate for viability at 500 cells/well.

p97, sequence (P55072 whole entry): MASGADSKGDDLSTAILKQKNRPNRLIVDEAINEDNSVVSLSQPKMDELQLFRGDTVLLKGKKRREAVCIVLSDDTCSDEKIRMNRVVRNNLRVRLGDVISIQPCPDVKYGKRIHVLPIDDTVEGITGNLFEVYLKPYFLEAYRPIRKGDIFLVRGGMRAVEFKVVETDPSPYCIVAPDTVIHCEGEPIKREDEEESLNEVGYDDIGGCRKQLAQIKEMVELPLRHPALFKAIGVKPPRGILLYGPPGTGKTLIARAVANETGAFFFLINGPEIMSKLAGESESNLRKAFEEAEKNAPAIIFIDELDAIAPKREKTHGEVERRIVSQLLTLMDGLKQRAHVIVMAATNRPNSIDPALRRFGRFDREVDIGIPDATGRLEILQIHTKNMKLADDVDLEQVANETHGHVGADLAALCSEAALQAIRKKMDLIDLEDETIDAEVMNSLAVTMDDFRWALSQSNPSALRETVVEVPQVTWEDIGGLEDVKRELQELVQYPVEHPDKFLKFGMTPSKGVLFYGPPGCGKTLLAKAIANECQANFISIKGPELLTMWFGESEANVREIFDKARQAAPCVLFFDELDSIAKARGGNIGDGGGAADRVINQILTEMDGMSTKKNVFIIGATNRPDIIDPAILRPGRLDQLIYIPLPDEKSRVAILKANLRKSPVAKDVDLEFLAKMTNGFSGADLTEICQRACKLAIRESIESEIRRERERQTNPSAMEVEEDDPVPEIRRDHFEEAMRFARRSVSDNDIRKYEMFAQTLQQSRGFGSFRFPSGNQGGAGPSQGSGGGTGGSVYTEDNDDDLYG

SMILES	IC50 [1]	IC50 [2]
COc1nc2ccccc2n1-c1nc2c(c(NCc3ccccc3)n1)CCCC2 [compound 9, N-benzyl-2-(2-methoxy-1H-1,3-benzodiazol-1-yl)-5,6,7,8-tetrahydroquinazolin-4-amine]	< 100 nM	< 10 µM
Cc1cc2ccccc2n1-c1nc2c(c(NCc3ccccc3)n1)CCCC2 [compound 21, N-benzyl-2-(2-methyl-1H-indol-1-yl)-5,6,7,8-tetrahydroquinazolin-4-amine]	< 300 nM	< 10 µM
Cc1cc2c(C#N)cccc2n1-c1nc2c(c(NCc3ccccc3)n1)CNCC2 [compound 42, 1-[4-(benzylamino)-5H,6H,7H,8H-pyrido[4,3-d]pyrimidin-2-yl]-2-methyl-1H-indole-4-carbonitrile]	< 100 nM	< 10 µM
Cc1cc2c(C(=O)NCCN(C)C)cccc2n1-c1nc2c(c(NCc3ccccc3)n1)COCC2 [compound 84]	< 30 nM	< 10 µM
Cc1cc2c(C(N)=O)cccc2n1-c1nc2c(c(NCc3ccccc3)n1)CCCC2 [compound 90, 1-[4-(benzylamino)-5,6,7,8-tetrahydroquinazolin-2-yl]-2-methyl-1H-indole-4-carboxamide]	< 30 nM	< 10 µM
COc1cc2c(C(N)=O)cccc2n1-c1nc2c(c(NCc3ccccc3)n1)CCCC2 [compound 91, 1-[4-(benzylamino)-5,6,7,8-tetrahydroquinazolin-2-yl]-2-methoxy-1H-indole-4-carboxamide]	< 30 nM	< 10 µM
Cc1nc2c(C(N)=O)cccc2n1-c1nc2c(c(NCc3ccccc3)n1)COCC2 [compound 93, 1-[4-(benzylamino)-5H,7H,8H-pyrano[4,3-d]pyrimidin-2-yl]-2-methyl-1H-1,3-benzodiazole-4-carboxamide]	< 100 nM	< 10 µM
COc1nc2c(C(N)=O)cccc2n1-c1nc2c(c(NCc3ccccc3)n1)COCC2 [compound 94, 1-[4-(benzylamino)-5H,7H,8H-pyrano[4,3-d]pyrimidin-2-yl]-2-methoxy-1H-1,3-benzodiazole-4-carboxamide]	< 30 nM	< 10 µM
NC(=O)c1cccc2c1cc(CO)n2-c1nc2c(c(NCc3ccccc3)n1)COCC2 [compound 96, 1-[4-(benzylamino)-5H,7H,8H-pyrano[4,3-d]pyrimidin-2-yl]-2-(hydroxymethyl)-1H-indole-4-carboxamide]	< 100 nM	< 10 µM
CNC(=O)c1cccc2c1cc(C)n2-c1nc2c(c(NCc3ccccc3)n1)COCC2 [compound 97, 1-[4-(benzylamino)-5H,7H,8H-pyrano[4,3-d]pyrimidin-2-yl]-N,2-dimethyl-1H-indole-4-carboxamide]	< 100 nM	< 10 µM
NCc1cc2c(C(N)=O)cccc2n1-c1nc2c(c(NCc3ccccc3)n1)CCCC2 [compound 101, 2-(aminomethyl)-1-[4-(benzylamino)-5,6,7,8-tetrahydroquinazolin-2-yl]-1H-indole-4-carboxamide]	< 30 nM	< 10 µM
Cc1cc2c(C(=O)NCCN)cccc2n1-c1nc2c(c(NCc3ccccc3)n1)COCC2 [compound 105, N-(2-aminoethyl)-1-[4-(benzylamino)-5H,7H,8H-pyrano[4,3-d]pyrimidin-2-yl]-2-methyl-1H-indole-4-carboxamide]	< 1000 nM	< 10 µM
COc1nc2c(C#N)cccc2n1-c1nc2c(c(NCc3ccccc3)n1)COCC2 [compound 106, 1-[4-(benzylamino)-5H,7H,8H-pyrano[4,3-d]pyrimidin-2-yl]-2-methoxy-1H-1,3-benzodiazole-4-carbonitrile]	< 300 nM	< 10 µM
Cc1cc2c(C(=O)O)cccc2n1-c1nc2c(c(NCc3ccccc3)n1)COCC2 [compound 107, 1-[4-(benzylamino)-5H,7H,8H-pyrano[4,3-d]pyrimidin-2-yl]-2-methyl-1H-indole-4-carboxylic acid]	< 30 nM	< 10 µM
Cc1cc2c(C(=O)O)cccc2n1-c1nc2c(c(NCc3ccccc3)n1)CCCC2 [compound 108, 1-[4-(benzylamino)-5,6,7,8-tetrahydroquinazolin-2-yl]-2-methyl-1H-indole-4-carboxylic acid]	< 30 nM	< 10 µM
Cc1cc2c(S(N)(=O)=O)cccc2n1-c1nc2c(c(NCc3ccccc3)n1)CCCC2 [compound 110, 1-[4-(benzylamino)-5,6,7,8-tetrahydroquinazolin-2-yl]-2-methyl-1H-indole-4-sulfonamide]	< 100 nM	< 10 µM
Cc1cc2c(S(C)(=O)=O)cccc2n1-c1nc2c(c(NCc3ccccc3)n1)CCCC2 [compound 111, N-benzyl-2-(4-methanesulfonyl-2-methyl-1H-indol-1-yl)-5,6,7,8-tetrahydroquinazolin-4-amine]	< 100 nM	< 10 µM
CCc1cc2c(C(N)=O)cccc2n1-c1nc2c(c(NCc3ccccc3)n1)CCCC2 [compound 112, 1-[4-(benzylamino)-5,6,7,8-tetrahydroquinazolin-2-yl]-2-ethyl-1H-indole-4-carboxamide]	< 100 nM	< 10 µM
CCc1cc2c(C(N)=O)cccc2n1-c1nc2c(c(NCc3ccccc3)n1)COCC2 [compound 113, 1-[4-(benzylamino)-5H,7H,8H-pyrano[4,3-d]pyrimidin-2-yl]-2-ethyl-1H-indole-4-carboxamide]	< 300 nM	< 10 µM
COc1nc2c(C(N)=O)cccc2n1-c1nc2c(c(NCc3ccccc3)n1)CCCC2 [compound 114, 1-[4-(benzylamino)-5,6,7,8-tetrahydroquinazolin-2-yl]-2-methoxy-1H-1,3-benzodiazole-4-carboxamide]	< 30 nM	< 10 µM
Cc1cc2c(S(C)(=O)=O)cccc2n1-c1nc2c(c(NCc3ccccc3)n1)COCC2 [compound 118, N-benzyl-2-(4-methanesulfonyl-2-methyl-1H-indol-1-yl)-5H,7H,8H-pyrano[4,3-d]pyrimidin-4-amine]	< 300 nM	< 10 µM
Cc1cc2c(C(N)=O)cccc2n1-c1nc2c(c(NCc3ccc(F)cc3)n1)COCC2 [compound 122, 1-(4-{[(4-fluorophenyl)methyl]amino}-5H,7H,8H-pyrano[4,3-d]pyrimidin-2-yl)-2-methyl-1H-indole-4-carboxamide]	< 100 nM	< 10 µM
Cc1cc2c(C(N)=O)cccc2n1-c1nc2c(c(NCc3ccccc3F)n1)COCC2 [compound 123, 1-(4-{[(2-fluorophenyl)methyl]amino}-5H,7H,8H-pyrano[4,3-d]pyrimidin-2-yl)-2-methyl-1H-indole-4-carboxamide]	< 100 nM	< 10 µM
Cc1cc2c(CN)cccc2n1-c1nc2c(c(NCc3ccccc3)n1)CCCC2 [compound 124, 2-[4-(aminomethyl)-2-methyl-1H-indol-1-yl]-N-benzyl-5,6,7,8-tetrahydroquinazolin-4-amine]	< 100 nM	< 10 µM
Cc1cc2c(CN)cccc2n1-c1nc2c(c(NCc3ccccc3)n1)COCC2 [compound 125, 2-[4-(aminomethyl)-2-methyl-1H-indol-1-yl]-N-benzyl-5H,7H,8H-pyrano[4,3-d]pyrimidin-4-amine]		< 10 µM
CC(C)c1cc2c(C(N)=O)cccc2n1-c1nc2c(c(NCc3ccccc3)n1)CCCC2 [compound 128, 1-[4-(benzylamino)-5,6,7,8-tetrahydroquinazolin-2-yl]-2-(propan-2-yl)-1H-indole-4-carboxamide]	< 100 nM	< 10 µM
NC(=O)c1cccc2c1cc(C1CC1)n2-c1nc2c(c(NCc3ccccc3)n1)CCCC2 [compound 130, 1-[4-(benzylamino)-5,6,7,8-tetrahydroquinazolin-2-yl]-2-cyclopropyl-1H-indole-4-carboxamide]	< 30 nM	< 10 µM
CNC(=O)c1cccc2c1cc(C)n2-c1nc2c(c(NCc3ccccc3)n1)CCCC2 [compound 132, 1-[4-(benzylamino)-5,6,7,8-tetrahydroquinazolin-2-yl]-N-methyl-2-methyl-1H-indole-4-carboxamide]	< 30 nM	< 10 µM
CCOc1cc2c(C(N)=O)cccc2n1-c1nc2c(c(NCc3ccccc3)n1)CCCC2 [compound 135, 1-[4-(benzylamino)-5,6,7,8-tetrahydroquinazolin-2-yl]-2-ethoxy-1H-indole-4-carboxamide]	< 30 nM	
